Experiments:
DNA-PK = DNA-PK (Homo sapiens, UniProt P78527); conditions: Hardcastle et al., J. Med. Chem. 48: 7829-46 (2005); read-out: IC50 against DNA-PK; cited from earlier work
DNA-PKcs = biological target: T1, DNA-PKcs (Homo sapiens, UniProt P78527); assay: DNA-PKcs activation in MCF7 cells, immunoblot for phosphorylated Ser2056; assay type: cell-based; conditions: for DNA-PKcs activation in the presence of 25 mM glucose: MCF7 cells, FIG. 5
T1 construct: endogenous in cells; host or cells: MCF7 (ATCC)
Experimental: MCF7 cells were obtained from the ATCC. MCF7 cells in G0 were treated with varying doses of H2O2 (FIG. 1). The cells were examined while in the G0 phase of their life cycle to mimic the post-mitotic state of cells in vivo. Low passage MCF-7 cells in G0 were exposed to varying concentrations of H2O2 for 60 minutes with or without Euk-134 or ionizing radiation (5 Gy). For Western blot analysis of DNA-PKcs activation and the activation of other signaling pathways in this study, the following antibodies were used: ACC1 (Cell Signaling); p-ACC1 (Upstate); AMP-activated protein kinase (AMPK; Cell Signaling); p-AMPK(T172) (Cell Signaling); DNA-PK (Lab Vision); p53 (Novocastra); p-DNA-PK(S2056) (Abeam); p-p53(S15) (Cell Signaling); γ-H2AX (Upstate); 53BP1 (Novus Biologicals).
Activation of DNA-PKcs was visualized by immunoblotting cell lysates with antibody specific for phosphorylated Ser2056, which is autophosphorylated during DNA-PKcs activation (Chen et al., J. Biol. Chem. 280: 14709-15 (2005)) (FIG. 1). […] Instead, H2O2 increased DNA-PKcs activation, and such activation was abrogated by the antioxidant Euk-134 (FIG. 1), a potent synthetic superoxide dismutase and catalase mimetic (Chatterjee, Am. J. Nephrol. 24: 165-77 (2004)).
MCF7 cells were then cultured in 25 mM glucose. Aliquots of the cultured MCF7 cells were treated with ionizing radiation and/or the DNA-PKcs-specific inhibitor NU7026. Treatment with glucose and ionizing radiation increased DNA-PKcs phosphorylation (data not shown). […] The basal activity of DNA-PKcs in MCF-7 cells in 25 mM glucose was detectable even in the absence of ionizing radiation, but this basal activity was suppressed with the DNA-PKcs-specific inhibitor NU7026 (data not shown).

[1] = in vitro; cited from earlier work
MCF7 cells = assay: Reactive oxygen species production in MCF7 cells (CM-H2DCFDA); assay type: cell-based; conditions: for Reactive oxygen species production: NU 7026 5 μM 12 h, DNP 200 μM 10 min, Troglitazone 30 μM 4 hr, Euk-134 5 μM 3 h, MnTBAP 14 μM 3 h, FIG. 4
Text: Measurement of intracellular reactive oxygen species was based on changes in the fluorescence intensity of redox-sensitive fluorescent probes, including CM-H2DCFDA. CM-H2DCFDA is a probe for intracellular hydrogen peroxide (Jou M J et al. J. Biomed Sci 9:507 (2002)). CM-H2DCFDA rapidly diffuses into cells, reacts with intracellular glutathione and thiols, and yields a fluorescent product that is retained inside the cell (Shanker G et al. Mol Brain Res 128:48, 2004). The fluorescence intensity of CM-H2DCFDA is therefore indicative of the amount of intracellular H2O2.
Briefly, cells were incubated with 10 uM CM-H2DCFDA for 30 min at 37° C. The cells were then excited at the peak excitation wavelength for CM-H2DCFDA (485 nm) and emissions at 535 nm were measured with Wallac Victor multilable counter (Perkin Elmer). For glucose treatment, the total sugar content in the media was kept constant by supplementing with mannitol, which is not metabolized.
MCF-7 cells were obtained from ATCC and grown as recommended. Confluent MCF-7 cells were incubated with serum-free DMEM medium for 3-12 h before the experiment. MCF-7 cells were then treated with DNA-PK inhibitor NU 7026 (5 μM; Calbiochem) for 12 h, DNP (200 μM; Sigma) for 10 min, Troglitazone (30 μM) for 4 hr, Euk-134 (5 μM; Eukarion) for 3 h, MnTBAP (14 μM; Calbiochem) for 3 h and Resveratrol.

[2] = rats, systemic administration of kainic acid; Rong et al. 1999; cited from earlier work
[3] = middle cerebral artery ligation; Baker et al. 1998; cited from earlier work
[4] = ROS levels in tissues of ob/ob mice; assay type: in vivo; conditions: FIG. 38
[5] = Treadmill running endurance; assay type: in vivo, mice; conditions: ob/ob mice, FIG. 39
Experimental: Previous studies have shown that increased expression of PPARδ or PGC-1α in skeletal muscle decreases exercise-induced fatigue. Therefore, tests were performed to ascertain what was the physical endurance of 4, 7 and 14 month-old SCID and WT mice using treadmill running. Prior to the exercise test, the mice were accustomed to and trained by running on an Exer-3/6 mouse treadmill (Columbus Instruments) at 7 m/min for 5 minutes for 3 days. For the endurance test, the treadmill speed was increased to 10 m/min and mice were allowed to run until exhaustion.
The therapeutic potential of DNA-PKcs inhibitors to reverse physical decline with aging was tested. In particular, the physical endurance of obese and middle-aged mice treated with Cpd36 was examined by treadmill running. Obese mice fed a high-fat diet that were treated with Cpd36 were able to run 40-50% farther over a given period of time than the control mice fed the same high fat diet (FIG. 45), as measured by totaling the distance run on a treadmill. Middle-aged mice (13 months) fed a breeder diet who were similarly treated with Cpd36 were also able to run 40-50% farther than middle aged mice that received no such treatment (data not shown).

[6] = Hot plate test, latency for pain reaction; assay type: in vivo, mice; conditions: data not shown
Experimental: Epidemiological studies indicate that people with mood disorders are twice as likely to have chronic pain compared to people without mood disorders (Ohayon et al., Arch. Gen. Psychiatry 60: 39-47 (2003)). Although it is possible that pain contributes to the depressed mood, it is also possible that perception of pain is increased in people with mood disorders. To determine whether SCID mice have altered pain tolerance, the latency for pain reaction to a hot plate was measured. […] (FIG. 30) and at 55° C.
Because tolerance to pain (Example 26) is also linked to the serotonergic pathways, measurements of the latency to pain reaction on hot plate after saline, serotonin reuptake inhibitor fluoxetine (Prozac) or serotonin antagonist GR38032F (Zofran) injection were made.
(§1) Elevated plus maze tests, light/dark chamber tests, forced swim tests (FST) and hot plate tests were performed as described earlier.

neurons = conditions: low concentrations; De Felice et al. 2001; cited from earlier work
Sirt1 and PGC-1α = Sirt1 and PGC-1α expression in C2C12 myoblasts; assay type: cell-based
Experimental: (§2) Increased mitochondrial function boosts energy production and physical endurance. […] Further tests were therefore conducted to ascertain whether DNA-PKcs inhibitor elevates mitochondrial biogenesis and expression of PGC-1α and Sirt, which are important for mitochondrial biogenesis. […] It is important to note that only 2.5 μM of NU7026 was required to induce a similar level of Sirt1 to that induced by 25-50 μM Resveratrol, a well-known, potent Sirt1 activator.

C2C12 cells = assay: Mitochondrial DNA copy number in C2C12 cells; assay type: cell-based; conditions: C2C12 myoblasts, FIG. 49C
Experimental: Quantitative Real-Time PCR was used to assess the relative amounts of nuclear DNA and mtDNA, to permit assessment of the ratio of mtDNA to nucleic DNA, which reflects the tissue concentration of mitochondria per cell. Muscle tissues were homogenized and digested with Proteinase K overnight in a lysis buffer for DNA extraction by conventional phenol-chloroform method. Quantitative PCR was performed using the following primers: […]
as §2, with “activator. In FIG. 49C, mitochondrial DNA copy number increased (>1.8 fold) in C2C12 cells after 2.5 μM NU7026 treatment.” for “activator.”

LKB1 = LKB1 activation (LKB1 phosphorylation) in C2C12 cells; assay type: cell-based; conditions: NU7026 2.5 μM, Resveratrol 50 μM, FIG. 51A
Experimental: Cells were treated with DNA-PKcs inhibitors to ascertain whether DNA-PKcs suppresses LKB1 activity in vitro.

Elevated plus maze test = assay type: in vivo, mice; conditions: SCID mice, intraperitoneal injection, FIG. 33
Experimental: To evaluate whether SCID mice may also have altered anxiety, fear and depression-like traits, an elevated plus maze test was performed, which is a commonly used test to quantify the level of anxiety- and depression-like traits in rodents (Pellow et al. J. Neurosci. Methods 14: 149-67 (1985)). The elevated plus maze has narrow runways that are located 16 inches above the surface that are either closed or open. The animal is placed in the center of an elevated 4-arm maze in which 2 arms are open and 2 are enclosed. Mice generally avoid the open arms because of their fear of open space and height. The elevated plus-maze is used to determine the rodent's response to a potentially dangerous environment and anxiety-related behavior is measured by the degree to which the rodent avoids the unenclosed arms of the maze. Increase in the number of times the animal enters the open arm and the amount of time spent in the open arms reflect decreased anxiety and depression.
as §1

## O=c1cc(N2CCOCC2)oc2c(-c3cccc4c3sc3ccccc34)cccc12 [NU7441, 8-dibenzothiophen-4-yl-2-morpholin-4-yl-chromen-4-one]
DNA-PK
  IC50: 13 nM

## Euk-134
DNA-PKcs; MCF7 cells in G0, H2O2 60 minutes, FIG. 1
  H2O2-induced DNA-PKcs activation: abrogated
DNA-PKcs
  DNA-PKcs activation in the presence of 25 mM glucose: decreased DNA-PKcs activation
[1]
  hydrogen peroxide consumption: consumes hydrogen peroxide in vitro
MCF7 cells
  Reactive oxygen species production: significantly decreased
MCF7 cells; glucose 0-25 mM, 3 hr, FIG. 2
  glucose-induced reactive oxygen species production: partially suppressed
[2]
  oxidative stress and brain damage: prevent oxidative stress and attenuate brain damage
[3]
  effect in rat stroke model: protective effects
[4]
  ROS production in muscle, WAT and heart tissues: decreased ROS production
[5]
  treadmill running ability: increased running ability of ob/ob mice dramatically

## CNCCC(Oc1ccc(C(F)(F)F)cc1)c1ccccc1 (stereo not drawn) [Fluoxetine]
[6]; wild-type mice
  latency for pain reaction on hot plate: increased the latency for pain reaction in wild-type mice

## O=[N+]([O-])c1ccc(O)c([N+](=O)[O-])c1 [DNP, 2,4-dinitrophenol]
DNA-PKcs
  DNA-PKcs activation in the presence of 25 mM glucose: decreased DNA-PKcs activation
MCF7 cells
  Reactive oxygen species production: significantly decreased
neurons
  protection of neurons against amyloid-beta peptide toxicity: protect neurons against the toxicity of the amyloid-beta peptide

## Manganese (III) tetrakis(4-benzoic acid)porphyrin [MnTBAP]
DNA-PKcs
  DNA-PKcs activation in the presence of 25 mM glucose: decreased DNA-PKcs activation
MCF7 cells
  Reactive oxygen species production: significantly decreased

## Cc1c(C)c2c(c(C)c1O)CCC(C)(COc1ccc(CC3SC(=O)NC3=O)cc1)O2 (racemic) [TZD, (±)-[[4-[(3,4-dihydro-6-hydroxy-2,5,7,8-tetramethl-2H-1-benzopyran-2-yl)methoxy]phenyl]methyl]-2,4-thiazolidinedione]
MCF7 cells
  Reactive oxygen species production: significantly decreased

## Oc1ccc(/C=C/c2cc(O)cc(O)c2)cc1 [Resveratrol]
DNA-PKcs
  DNA-PKcs activation in the presence of 25 mM glucose: decreased DNA-PKcs activation
MCF7 cells
  Reactive oxygen species production: significantly decreased
Sirt1 and PGC-1α
  concentration required to induce a similar level of Sirt1: 25 to 50 µM
Sirt1 and PGC-1α; FIG. 49
  PGC-1α and Sirt1 expression: increased
C2C12 cells
  relative copy number of mitochondrial DNA: increases
LKB1
  LKB1 activation (LKB1 phosphorylation): showed LKB1 activation

## Cc1nccn1CC1CCc2c(c3ccccc3n2C)C1=O.Cl (stereo not drawn) [GR38032F]
[6]; SCID mice
  latency for pain reaction on hot plate: decreased the latency for pain reaction in SCID mice
[6]; wild-type mice
  latency for pain reaction on hot plate: not wild-type mice
Elevated plus maze test
  number of SCID mice that stayed in the open arm 30 sec or longer: decreased dramatically

## CN(C)C(=N)NC(=N)N [metformin]
DNA-PKcs
  DNA-PKcs activation in the presence of 25 mM glucose: decreased DNA-PKcs activation

From patent publication US20100130597A1, “DNA-PKCS MODULATES ENERGY REGULATION AND BRAIN FUNCTION” (The United State of America, as represented by the …, priority 2007, published 2010)
